Assay results as given in US20220054469A1, “FARNESOID X RECEPTOR AGONISTS AND USES THEREOF” (Metacrine, Inc., priority 2018, published 2022).

Target: T1, hFXR (Homo sapiens, UniProt Q96RI1)
T1 construct: expressed in transfected cells; host or cells: CV-1 cells
T1 sequence (Q96RI1 1-486): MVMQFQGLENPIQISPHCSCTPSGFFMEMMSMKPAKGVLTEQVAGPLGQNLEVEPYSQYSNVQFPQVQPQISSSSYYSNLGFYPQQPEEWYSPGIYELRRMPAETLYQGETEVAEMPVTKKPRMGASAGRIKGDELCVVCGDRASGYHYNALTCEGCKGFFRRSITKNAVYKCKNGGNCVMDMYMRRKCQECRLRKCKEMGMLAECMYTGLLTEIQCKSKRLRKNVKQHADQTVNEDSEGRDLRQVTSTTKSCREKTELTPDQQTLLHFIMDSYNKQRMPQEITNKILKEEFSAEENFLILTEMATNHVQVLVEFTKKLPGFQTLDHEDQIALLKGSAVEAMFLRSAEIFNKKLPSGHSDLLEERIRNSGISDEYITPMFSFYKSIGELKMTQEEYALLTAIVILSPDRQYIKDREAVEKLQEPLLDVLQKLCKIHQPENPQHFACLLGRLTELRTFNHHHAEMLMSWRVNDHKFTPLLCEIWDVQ
T1 sequence (P19793 1-462 partner): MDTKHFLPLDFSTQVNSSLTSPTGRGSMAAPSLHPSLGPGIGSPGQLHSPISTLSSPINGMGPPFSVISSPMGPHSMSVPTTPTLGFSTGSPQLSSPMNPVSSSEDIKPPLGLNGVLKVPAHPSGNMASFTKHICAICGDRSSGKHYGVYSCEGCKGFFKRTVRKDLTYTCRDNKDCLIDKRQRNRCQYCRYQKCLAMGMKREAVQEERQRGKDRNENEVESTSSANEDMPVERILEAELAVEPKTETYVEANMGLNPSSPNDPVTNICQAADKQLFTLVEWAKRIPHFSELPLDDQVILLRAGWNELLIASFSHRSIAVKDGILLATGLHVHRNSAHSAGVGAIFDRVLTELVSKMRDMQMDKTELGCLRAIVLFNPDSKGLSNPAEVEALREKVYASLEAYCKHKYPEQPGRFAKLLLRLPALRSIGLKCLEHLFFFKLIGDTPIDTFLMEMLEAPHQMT
Experiment: In Vitro FXR Assay (TK)
Type: cell-based
Conditions: CV-1 cells transfected with hFXR, hRXR, TK-ECRE-luc and pCMX-YFP; incubated with compound for 18 hrs; luminescence
Procedure: Example B-1: In Vitro FXR Assay (TK)
CV-1 cells were seeded at a density of 2,000,000 cells in a T175 flask with DMEM+10% charcoal double-stripped FBS and incubated at 37° C. in 5% CO2 for 18 h (O/N).
After 18 h of incubation, the medium in the T175 flask was changed with fresh DMEM+10% charcoal super-stripped serum. In a polypropylene tube, 2500 μL OptiMEM (Life Technologies, Cat #31985-062) was combined with expression plasmids for hFXR, hRXR, TK-ECRE-luc and pCMX-YFP. The tube was then briefly vortexed and incubated at room temperature for 5 minutes. Transfection reagent (X-tremeGENE HP from Roche, Cat #06 366 236 001) was added to the OptiMEM/plasmid mixture vortexed and incubated at room temperature for 20 minutes. Following incubation, the transfection reagent/DNA mixture complex was added to cells in the T175 flask and the cells were incubated at 37° C. in 5% CO2 for 18 h (O/N).
Compounds were serially diluted in DMSO and added to transfected CV-1 cells. The cells were then incubated for 18 hrs. The next day cells were lysed and examined for luminescence.

| EC50 | SMILES |
| --- | --- |
| 50 to 1000 nM | COc1ccc(C23CCC(CN(c4cccc(-c5nnc(C6CC6)o5)c4)C(=O)[C@H]4CC[C@H](CC(=O)O)CC4)(CC2)CC3)cc1C [Compound 4.30, trans-2-(-4-((3-(5-Cyclopropyl-1,3,4-oxadiazol-2-yl)phenyl)((4-(4-methoxy-3-methylphenyl)bicyclo[2.2.2]octan-1-yl)methyl)carbamoyl)cyclohexyl)acetic acid] |
| ≤ 50 nM | CC(C)n1cc(-c2cccc(N(CC34CCC(c5ccc(N(C)C)nc5)(CC3)CC4)C(=O)[C@H]3CC[C@H](CC(=O)O)CC3)c2)cn1 [Compound 4.14, trans-2-(4-(((4-(6-(Dimethylamino)pyridin-3-yl)bicyclo[2.2.2]octan-1-yl)methyl)(3-(1-isopropyl-1H-pyrazol-4-yl)phenyl)carbamoyl)cyclohexyl)acetic acid] |
| ≤ 50 nM | COc1ccc(C23CCC(CN(c4cc(-c5cnc(C(C)C)s5)ccn4)C(=O)[C@H]4CC[C@H](CC(=O)O)CC4)(CC2)CC3)cc1C [Compound 4.16, trans-2-(4-((4-(2-Isopropylthiazol-5-yl)pyridin-2-yl)((4-(4-methoxy-3-methylphenyl)bicyclo[2.2.2]octan-1-yl)methyl)carbamoyl)cyclohexyl)acetic acid] |
| ≤ 50 nM | COc1ccc(C23CCC(CN(c4cc(-c5cnc(C6CC6)s5)ccn4)C(=O)[C@H]4CC[C@H](CC(=O)O)CC4)(CC2)CC3)cc1C [Compound 4.15, trans-2-(4-((4-(2-Cyclopropylthiazol-5-yl)pyridin-2-yl)((4-(4-methoxy-3-methylphenyl)bicyclo[2.2.2]octan-1-yl)methyl)carbamoyl)cyclohexyl)acetic acid] |
| 50 to 1000 nM | COc1c(C)cc(C23CCC(CN(c4cc(-c5cnn(C(C)C)c5)ncn4)C(=O)[C@H]4CC[C@H](CC(=O)O)CC4)(CC2)CC3)cc1C [Compound 4.08, trans-2-(4-((6-(1-Isopropyl-1H-pyrazol-4-yl)pyrimidin-4-yl)((4-(4-methoxy-3,5-dimethylphenyl)bicyclo[2.2.2]octan-1-yl)methyl)carbamoyl)cyclohexyl)acetic acid] |

Continued, compound first:

| SMILES | EC50 |
| --- | --- |
| COc1ccc([C@H]2CC[C@H](CN(c3cc(-c4cnn(C(C)(C)C)c4)ccn3)C(=O)[C@H]3CC[C@H](CC(=O)O)CC3)CC2)cc1C [Compound 2.05, 2-(trans-4-((4-(1-(tert-Butyl)-1H-pyrazol-4-yl)pyridin-2-yl)((trans-4-(4-methoxy-3-methylphenyl)cyclohexyl)methyl)carbamoyl)cyclohexyl)acetic acid] | 50 to 1000 nM |
| CN(C)c1ccc(C23CCC(CN(c4cccc(-c5cnn(C(C)(C)C)c5)c4)C(=O)[C@H]4CC[C@H](CC(=O)O)CC4)(CC2)CC3)cn1 [Compound 2, trans-2-(4-((3-(1-(tert-Butyl)-1H-pyrazol-4-yl)phenyl)((4-(6-(dimethylamino)pyridin-3-yl)bicyclo[2.2.2]octan-1-yl)methyl)carbamoyl)cyclohexyl)acetic acid] | ≤ 50 nM |
| COc1ccc(C23CCC(CN(c4cc(-c5cnn(C(C)C)c5)c(F)cn4)C(=O)[C@H]4CC[C@H](CC(=O)O)CC4)(CC2)CC3)cc1C [Compound 2.10, trans-2-(4-((5-Fluoro-4-(1-isopropyl-1H-pyrazol-4-yl)pyridin-2-yl)((4-(4-methoxy-3-methylphenyl)bicyclo[2.2.2]octan-1-yl)methyl)carbamoyl)cyclohexyl)acetic acid] | ≤ 50 nM |
| COc1ncc(C23CCC(CN(c4cccc(-c5cnn(C(C)(C)C)c5)c4)C(=O)[C@H]4CC[C@H](CC(=O)O)CC4)(CC2)CC3)cc1C [Compound 2.07, trans-2-(4-((3-(1-(tert-Butyl)-1H-pyrazol-4-yl)phenyl)((4-(6-methoxy-5-methylpyridin-3-yl)bicyclo[2.2.2]octan-1-yl)methyl)carbamoyl)cyclohexyl)acetic acid] | ≤ 50 nM |
